The source of these data is patent publication US20230099441A1, “HETEROCYCLIC COMPOUND, APPLICATION THEREOF, AND COMPOSITION CONTAINING SAME” (GenEros Biopharma Ltd., priority 2019, published 2023).

The test system of one assay is STAT5 Y694 phosphorylation. Nature of the assay: Protein electrophoresis and blotting of STAT5 Y694 phosphorylation in Jurkat cells stimulated with human interferon beta. The class given is cell-based. To be noted: observed pSTAT5 bands at 10 μM and 100 μM. In short, it runs like this: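 Serum-free Jurkat cells pretreated with compound 1 h, then stimulated with 20 ng/ml human interferon beta for 30 min at 37° C. pSTAT5 measured by western blot with chemiluminescence, normalized to GAPDH and expressed as percent of DMSO control.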
With `Cc1[nH]c(=O)n(C2CCN(C(=O)Cc3ccc(C(F)(F)F)cc3)CC2)c1-c1ccccc1` [GEN1-166, 4-methyl-5-phenyl-1-(1-(2-(4-(trifluoromethyl)phenyl)acetyl)piperidin-4-yl)-1H-imidazole-2(3H)-one], the “Example of Effect 1: Inhibiting Ability (Protein Electrophoresis and Blotting)” value (“Example of Effect 1: Inhibiting Ability” below) is given as “+”.
Take `N#Cc1cccc2[nH]c(=O)n(C3CCN(C(=O)Cc4ccc5ncccc5c4)CC3)c12` [GEN1-151, 2-oxo-3-(1-(2-(quinolin-6-yl)acetyl)piperidin-4-yl)-2,3-dihydro-1H-benzo[d]imidazol-4-carbonitrile]: the “Example of Effect 1: Inhibiting Ability” value is “+”.
As to `O=C(Cc1ccc2ncccc2c1)N1CCC(n2c(=O)[nH]c3ccccc32)CC1` [GEN1-075, 1-(1-(2-(quinolin-6-yl)acetyl)piperidin-4-yl)-1H-benzo[d]imidazol-2(3H)-one], the “Example of Effect 1: Inhibiting Ability” value is given as “+”.
On the same count and under the same terms, then `O=C(Cc1ccc(C(F)(F)F)cc1)N1CCC(n2c(=O)[nH]c3cccc([N+](=O)[O-])c32)CC1` [GEN1-091, 7-nitro-1-(1-(2-(4-(trifluoromethyl)phenyl)acetyl)piperidin-4-yl)-1H-benzo[d]imidazol-2(3H)-one], with “+”.
For the molecule `COc1ccc(CC(=O)N2CCC(n3c(=O)[nH]c4ccccc43)CC2)cc1` [GEN1-070, 1-(1-(2-(4-methoxyphenyl)acetyl)piperidin-4-yl)-1H-benzo[d]imidazol-2(3H)-one], the “Example of Effect 1: Inhibiting Ability” value was “−”.
On the same count and under the same terms, the value for `CC(C)(C)c1ccc(CC(=O)N2CCC(N3CC(=O)Nc4ccccc43)CC2)cc1` [GEN1-122, 4-(1-(2-(4-(tert-butyl)phenyl)acetyl)piperidin-4-yl)-3,4-dihydroquinoxaline-2(1H)-one] was “+”.

For a further assay, the system named is STAT5 Y694 phosphorylation. Nature of the assay: HTRF experiment: STAT5 Y694 phosphorylation in Hela cells stimulated with human interferon beta. To be noted: 2 hours pretreatment, 10 nM human interferon beta 30 minutes. Format: cell-based. The method, then:
Example of Effect 3: HTRF Experiment
Human Interferon 3 (IFN-0) (GenScript, Cat #P01574), STAT5 Y694 phosphorylation detection kit (STAT5 phospho-Y694 kit) (Cisbio; Cat #64AT5PEG).
Hela cells (ATCC American Standard Culture Center, CCL-2) were cultured in a 96-well plate at a density of 3×10^4 cells/well with DMEM medium containing 5% fetal bovine serum and maintained at 37° C. in a humidified incubator with 5% carbon dioxide overnight. On the second day, the original DMEM medium in the 96-well plate was sucked dry, and an equal volume of medium containing different concentrations of compounds (the mother liquor of the compound prepared by dimethyl sulfoxide was diluted in the medium at the required concentration) was added for pretreatment for 2 hours, and then it was placed in an incubator at 37° C. Then human interferon beta with a final concentration of 10 nM was added to stimulate, and it was gently shaken to mix well and then placed in an incubator at 37° C. for 30 minutes.
The medium was removed, an appropriate volume of PBS was added to wash, and then it was sucked dry. Then 40 microliters of 1× Lysis Buffer was added to each well and it was stood for 30 minutes at room temperature (1 ml 1× lysate preparation: 740 μl ddH2O was added to 250 μl 4× lysate and 10 μl Blocking reagent and it was mixed thoroughly). After 30 minutes, the cells were repeatedly blown until the lysis solution was not viscous (avoiding blowing out bubbles) to achieve sufficient lysis.
After overnight incubation, the signals of 665 nm and 620 nm were detected in a multifunctional microplate reader. The calculation formula for the detection of STAT5 Y694 phosphorylation is: Ratio=[(signal 665 nm)/(signal 620 nm)]×10^4. Treatment with dimethyl sulfoxide alone was the baseline control (Ratiobase), and the human interferon β stimulation without addition of the compound was the STAT5 Y694 full phosphorylation activation control (Ratiostimulation), the inhibition rate of STAT5 Y694 phosphorylation of different samples was normalized: Inhibition rate=[1−(RatioExperiment−Ratiobase)/(Ratiostimulation−Ratiobase)]*100.
A general note: Time-resolved FRET reads energy transfer from a long-lived donor to a nearby acceptor.
`Cc1[nH]c(=O)n(C2CCN(C(=O)Cc3ccc(C(F)(F)F)cc3)CC2)c1-c1ccccc1` [GEN1-166, 4-methyl-5-phenyl-1-(1-(2-(4-(trifluoromethyl)phenyl)acetyl)piperidin-4-yl)-1H-imidazole-2(3H)-one]: the “Example of Effect 3: Inhibiting Ratio@10 μM (HTRF Experiment)” value is on record as 15.16%.
The same measure, in the same setting: the value for `N#Cc1cccc2[nH]c(=O)n(C3CCN(C(=O)Cc4ccc5ncccc5c4)CC3)c12` [GEN1-151, 2-oxo-3-(1-(2-(quinolin-6-yl)acetyl)piperidin-4-yl)-2,3-dihydro-1H-benzo[d]imidazol-4-carbonitrile] was 39.02%; that for `O=C(Cc1ccc2ncccc2c1)N1CCC(n2c(=O)[nH]c3ccccc32)CC1` [GEN1-075, 1-(1-(2-(quinolin-6-yl)acetyl)piperidin-4-yl)-1H-benzo[d]imidazol-2(3H)-one] was 10.79%.
With `O=C(Cc1ccc(C(F)(F)F)cc1)N1CCC(n2c(=O)[nH]c3cccc([N+](=O)[O-])c32)CC1` [GEN1-091, 7-nitro-1-(1-(2-(4-(trifluoromethyl)phenyl)acetyl)piperidin-4-yl)-1H-benzo[d]imidazol-2(3H)-one], the “Example of Effect 3: Inhibiting Ratio@10 μM (HTRF Experiment)” value is reported as 17.60%.
Regarding `O=C(Cc1ccc2ncccc2c1)N1CCC(n2c(=O)[nH]c3cccc(Cl)c32)CC1` [GEN1-291], the “Example of Effect 3: Inhibiting Ratio@10 μM (HTRF Experiment)” value is listed as 70.98%.
As for `O=C(Cc1ccc(C(F)(F)F)cc1)N1CCC(N2CC(=S)Nc3ccccc32)CC1` [GEN1-133], the “Example of Effect 3: Inhibiting Ratio@10 μM (HTRF Experiment)” value turned out to be 31.27%.
For `O=C(Cc1ccc(C(F)(F)F)cc1)N1CCC(c2c(Br)[nH]c3ccccc23)CC1` [GEN1-139, 1-(4-(2-bromo-1H-indol-3-yl)piperidin-1-yl)-2-(4-(trifluoromethyl)phenyl)ethenone], the “Example of Effect 3: Inhibiting Ratio@10 μM (HTRF Experiment)” value is listed as 18.43%.
The same measure, in the same setting: the value for `O=C(Cc1ccc2[nH]ccc2c1)N1CCC(n2c(=O)[nH]c3ccccc32)CC1` [GEN1-077, 3-[1-[2-(1H-indol-5-yl)acetyl]-4-piperidinyl]-1H-benzimidazol-2-one] was 34.25%.
For the molecule `O=C1Nc2ccccc2C2(CCN(C(=O)Cc3ccc(C(F)(F)F)cc3)CC2)N1` [GEN1-179, 1-(2-(4-(trifluoromethyl)phenyl)acetyl)-1′H-spiro[piperidin-4,4′-quinazoline]-2′(3′H)-one], the “Example of Effect 3: Inhibiting Ratio@10 μM (HTRF Experiment)” value came out at 10.11%.
Take `O=C(Cc1ccc2ncccc2c1)N1CCC(n2c(=O)[nH]c3cc(Cl)ccc32)CC1` [GEN1-294]: the “Example of Effect 3: Inhibiting Ratio@10 μM (HTRF Experiment)” value stood at 1.85%.
Same read-out and setting: then `O=C1Nc2ccccc2C2(CCN(C(=O)Cc3ccc(C(F)(F)F)cc3)CC2)O1` [GEN1-178, 1′-(2-(4-(trifluoromethyl)phenyl)acetyl)spiro[benzo[d][1,3]oxazine-4,4′-piperidine]-2(1H)-one], with 8.67%; and `O=C(Cc1ccc2c(c1)CCCN2)N1CCC(n2c(=O)[nH]c3cccc(C(F)(F)F)c32)CC1` [GEN1-276, 1-(1-(2-(1,2,3,4-tetrahydroquinolin-6-yl)acetyl)piperidin-4-yl)-7-(trifluoromethyl)-1,3-dihydro-2H-benzo[d]imidazol-2-one], with 55.48%; and `COc1ccccc1CC(=O)N1CCC(n2c(=O)[nH]c3ccccc32)CC1` [GEN1-271], with 9.33%.
On the same count and under the same terms, the value for `O=C(Cc1ccc(C(F)(F)F)cc1)NCCn1c(=O)[nH]c2ccccc21` [GEN1-062, N-(2-(2-oxo-2,3-dihydro-1H-benzo[d]imidazol-1-yl)ethyl)-2-(4-(trifluoromethyl)phenyl)acetamide] was 5.12%.
The same measure, in the same setting: then `Cc1cccc2[nH]c(=O)n(C3CCN(C(=O)Cc4ccc5ncccc5c4)CC3)c12` [GEN1-292, 7-methyl-1-(1-(2-(quinolin-6-yl)acetyl)piperidin-4-yl)-1,3-dihydro-2H-benzo[d]imidazol-2-one], with 59.63%; and `COc1cc(CC(=O)N2CCC(n3c(=O)[nH]c4cccc(C(F)(F)F)c43)CC2)ccc1Cl` [GEN1-278, 1-(1-(2-(4-chloro-3-methoxyphenyl)acetyl)piperidin-4-yl)-7-(trifluoromethyl)-1,3-dihydro-2H-benzo[d]imidazol-2-one], with 73.74%; and `O=C(Cc1ccc(C(F)(F)F)cc1)N1CCC(N2C(=O)NCc3cccc(C(F)(F)F)c32)CC1` [GEN1-265, 8-(trifluoromethyl)-1-(1-(2-(4-(trifluoromethyl)phenyl)acetyl)piperidin-4-yl)-3,4-dihydroquinazolin-2(1H)-one], with 16.47%.
Turning to `Cc1cccc2[nH]c(=O)n(C3CCN(C(=O)Cc4ccc(C(F)(F)F)cc4)CC3)c12` [GEN1-282], the “Example of Effect 3: Inhibiting Ratio@10 μM (HTRF Experiment)” value came out at 49.93%.
In the case of `O=C(Cc1ccc(C(F)(F)F)cc1)N1CCC(n2c(=O)[nH]c3cccc(Cl)c32)CC1` [GEN1-281], the “Example of Effect 3: Inhibiting Ratio@10 μM (HTRF Experiment)” value worked out at 50.87%.
On to `O=C(Cc1ccc(C(F)(F)F)cc1)N1CCC(n2c(=O)[nH]c3ccc(-c4ccccc4)c(C(F)(F)F)c32)CC1` [GEN1-277, 6-phenyl-7-(trifluoromethyl)-1-(1-(2-(4-(trifluoromethyl)phenyl)acetyl)piperidin-4-yl)-1H-benzo[d]imidazol-2(3H)-one], for which the “Example of Effect 3: Inhibiting Ratio@10 μM (HTRF Experiment)” value is listed as 6.52%.
For `COc1cccc(CC(=O)N2CCC(n3c(=O)[nH]c4ccccc43)CC2)c1` [GEN1-270], the “Example of Effect 3: Inhibiting Ratio@10 μM (HTRF Experiment)” value is reported as 21.10%.
For the molecule `CS(=O)(=O)Nc1ccc(CC(=O)N2CCC(n3c(=O)[nH]c4ccccc43)CC2)cc1` [GEN1-110], the “Example of Effect 3: Inhibiting Ratio@10 μM (HTRF Experiment)” value is reported as −10.49%.
Consider `O=C1CN(C2CCN(C(=O)Cc3ccc(C(F)(F)F)cc3)CC2)c2ccc(C(F)(F)F)cc2N1` [GEN1-135, 7-(trifluoromethyl)-4-(1-(2-(4-(trifluoromethyl)phenyl)acetyl)piperidin-4-yl)-3,4-dihydroquinoxaline-2(1H)-one], for which the “Example of Effect 3: Inhibiting Ratio@10 μM (HTRF Experiment)” value is given as 22.91%.
In the case of `CCOc1cccc(CC(=O)N2CCC(n3c(=O)[nH]c4ccccc43)CC2)c1` [GEN1-287], the “Example of Effect 3: Inhibiting Ratio@10 μM (HTRF Experiment)” value was determined as 8.72%.
With `O=C(Cc1ccc(C(F)(F)F)cc1)N1CCC(Nc2ccccc2O)CC1` [GEN1-056, 1-(4-((2-hydroxyphenyl)amino)piperidin-1-yl)-2-(4-(trifluoromethyl)phenyl)ethenone], the “Example of Effect 3: Inhibiting Ratio@10 μM (HTRF Experiment)” value worked out at 13.93%.
Same read-out and setting: the value for `O=C(Cc1ccc(Cl)c(OC(F)(F)F)c1)N1CCC(n2c(=O)[nH]c3cccc(C(F)(F)F)c32)CC1` [GEN1-280, 1-(1-(2-(4-chloro-3-(trifluoromethoxy)phenyl)acetyl)piperidin-4-yl)-7-(trifluoromethyl)-1,3-dihydro-2H-benzo[d]imidazol-2-one] was 20.53%.
On to `O=C(C[C@H]1CC[C@H](C(F)(F)F)CC1)N1CCC(n2c(=O)[nH]c3cccc(C(F)(F)F)c32)CC1` [GEN1-268, 7-(trifluoromethyl)-1-(1-(2-((1R,4R)-4-(trifluoromethyl)cyclohexyl)acetyl)piperidin-4-yl)-1H-benzo[d]imidazol-2(3H)-one], for which the “Example of Effect 3: Inhibiting Ratio@10 μM (HTRF Experiment)” value came out at 58.21%.
With `O=C(Cc1ccc(C(F)(F)F)cc1)N1CCC(n2c(=O)[nH]c3cccc(F)c32)CC1` [GEN1-289], the “Example of Effect 3: Inhibiting Ratio@10 μM (HTRF Experiment)” value worked out at 6.86%.
With `O=C(Cc1ccc(C(F)(F)F)cc1)N1CCC(n2c(=O)[nH]c3cccc(Br)c32)CC1` [GEN1-290], the “Example of Effect 3: Inhibiting Ratio@10 μM (HTRF Experiment)” value is 57.51%.
